Experimental data published in US20260176320A1, “MODULATORS OF G-PROTEIN COUPLED RECEPTORS” (priority 2018, published 2026).
Read-outs that look alike come from different tables or passages of the source.

Tests used:
Assay type in all cases: cell-based
[1] = biological target: T1, GIP-R (Homo sapiens, UniProt P48546); assay: HitHunter cAMP assay (GIP-R); settings: cAMP; for Emax: read-out: (Emax) GIP-R
T1 sequence (P48546 22-466): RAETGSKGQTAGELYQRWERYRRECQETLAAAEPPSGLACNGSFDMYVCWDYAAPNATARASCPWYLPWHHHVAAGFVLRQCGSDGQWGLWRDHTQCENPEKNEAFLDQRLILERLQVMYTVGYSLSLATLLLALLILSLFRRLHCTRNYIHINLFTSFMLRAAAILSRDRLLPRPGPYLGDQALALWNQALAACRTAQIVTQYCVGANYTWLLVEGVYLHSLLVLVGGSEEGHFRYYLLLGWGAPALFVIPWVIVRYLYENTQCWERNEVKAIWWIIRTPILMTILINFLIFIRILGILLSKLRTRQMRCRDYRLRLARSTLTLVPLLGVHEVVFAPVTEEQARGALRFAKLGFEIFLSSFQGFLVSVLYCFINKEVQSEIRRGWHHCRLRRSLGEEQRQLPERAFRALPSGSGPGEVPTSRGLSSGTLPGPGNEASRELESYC
Outline: (§1)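 Suspension cells (10,000/well) in HBSS with 10 mM HEPES, 625 μM IBMX, 0.2% BSA exposed to 22-point 2-fold agonist series in duplicate for 30 min at room temperature. cAMP measured by antibody immunocompetition with overnight development, luminescence read-out.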

[2] = biological target: T2, GLP-1R (Homo sapiens, UniProt P43220); assay: HitHunter cAMP assay (GLP-1R); settings: cAMP; for Emax: read-out: (Emax) GLP-1R
T2 sequence (P43220 24-463): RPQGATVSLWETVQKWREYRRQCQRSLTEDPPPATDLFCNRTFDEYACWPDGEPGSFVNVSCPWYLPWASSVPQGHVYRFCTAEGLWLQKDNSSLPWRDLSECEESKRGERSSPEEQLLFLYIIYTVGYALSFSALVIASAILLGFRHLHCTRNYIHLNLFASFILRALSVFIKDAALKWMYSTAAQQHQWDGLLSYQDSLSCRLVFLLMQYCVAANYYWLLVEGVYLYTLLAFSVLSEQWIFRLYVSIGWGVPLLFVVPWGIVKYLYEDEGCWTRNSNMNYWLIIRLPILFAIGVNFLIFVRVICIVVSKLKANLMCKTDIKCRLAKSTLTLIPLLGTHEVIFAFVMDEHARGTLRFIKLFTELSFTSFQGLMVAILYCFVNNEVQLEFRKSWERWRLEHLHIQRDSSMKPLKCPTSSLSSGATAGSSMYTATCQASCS
Outline: as §1

[3] = biological target: T2, GLP-1R; assay: PathHunter β-arrestin assay
Outline: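 Cells (5,000/well) plated overnight, then exposed to a 22-point 2-fold agonist dilution series in medium with 0.2% BSA for 90 min at 37 °C, 5% CO2. PathHunter detection reagent added; after 3 h at room temperature in the dark, luminescence read.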

[4] = Table 3A, read-out: EC50 GIP-R/nM
[5] = Table 3A, read-out: EC50 GLP-1R/nM
[6] = PathHunter β-arrestin assay, read-out: β-arrestin activity EC50
[7] = Table 3, read-out: EC50 GIP-R/nM
[8] = Table 3, read-out: EC50 GLP-1R/nM

| Compound | Emax ([1]; Table 3A) | EC50 [1, 4] | EC50 [2, 5] | EC50 [3, 6] | EC50 ([1]; EC50 GIP-R/nM, Table 3) | EC50 ([1]; EC50 GIP-R/nM, Table 3A) | Emax ([1]; Table 3) | EC50 ([2]; EC50 GLP-1R/nM, Table 3) | EC50 ([2]; EC50 GLP-1R/nM, Table 3A) | Emax ([2]; Table 3) | Emax ([2]; Table 3A) | EC50 [3] | EC50 [1, 7] | EC50 [2, 8] |
| --- | --- | --- | --- | --- | --- | --- | --- | --- | --- | --- | --- | --- | --- | --- |
| CCCCCCCCCCCCCCCC(=O)N[C@@H](CCC(=O)NCCCC[C@H](NC(=O)[C@H](CO)NC(=O)[C@@H]1CCCN1C(=O)[C@@H]1CCCN1C(=O)[C@@H]1CCCN1C(=O)[C@H](C)NC(=O)CNC(=O)[C@H](CO)NC(=O)[C@H](CO)NC(=O)[C@@H]1CCCN1C(=O)CNC(=O)CNC(=O)[C@H](C)NC(=O)[C@H](CC(C)C)NC(=O)[C@H](CC(C)C)NC(=O)[C@H](Cc1c[nH]c2ccccc12)NC(=O)[C@H](CC(N)=O)NC(=O)[C@@H](NC(=O)[C@H](Cc1ccccc1)NC(=O)[C@H](CCC(=O)O)NC(=O)C(C)(C)NC(=O)[C@H](C)NC(=O)[C@H](C)NC(=O)[C@H](CCC(N)=O)NC(=O)[C@H](CCCCN)NC(=O)[C@H](CC(=O)O)NC(=O)[C@H](CC(C)C)NC(=O)[C@H](Cc1ccc(O)cc1)NC(=O)[C@@H](NC(=O)[C@H](CO)NC(=O)[C@H](Cc1ccc(O)cc1)NC(=O)[C@H](CC(=O)O)NC(=O)[C@H](CO)NC(=O)[C@@H](NC(=O)[C@H](Cc1ccccc1)NC(=O)[C@@H](NC(=O)CNC(=O)[C@H](CCC(=O)O)NC(=O)CN(C)C(=O)CCN1CCCCC1=O)[C@@H](C)O)[C@@H](C)O)[C@@H](C)CC)C(C)C)C(N)=O)C(=O)O [Compound 206] | 18% | 100 to 1000 nM | < 0.1 nM | > 1000 nM |  |  |  |  |  |  |  |  |  |  |
| CC[C@H](C)[C@H](NC(=O)[C@H](CO)NC(=O)[C@H](Cc1ccc(O)cc1)NC(=O)[C@H](CC(=O)O)NC(=O)[C@H](CO)NC(=O)[C@@H](NC(=O)[C@H](Cc1ccccc1)NC(=O)[C@@H](NC(=O)CNC(=O)[C@H](CCC(=O)O)NC(=O)CCCCC(=O)NCCN1C(=O)c2ccccc2C1=O)[C@@H](C)O)[C@@H](C)O)C(=O)N[C@@H](Cc1ccc(O)cc1)C(=O)N[C@@H](CC(C)C)C(=O)N[C@@H](CC(=O)O)C(=O)N[C@@H](CCCCN)C(=O)N[C@@H](CCC(N)=O)C(=O)N[C@@H](C)C(=O)N[C@@H](C)C(=O)NC(C)(C)C(=O)N[C@@H](CCC(=O)O)C(=O)N[C@@H](Cc1ccccc1)C(=O)N[C@H](C(=O)N[C@@H](CC(N)=O)C(=O)N[C@@H](Cc1c[nH]c2ccccc12)C(=O)N[C@@H](CC(C)C)C(=O)N[C@@H](CC(C)C)C(=O)N[C@@H](C)C(=O)NCC(=O)NCC(=O)N1CCC[C@H]1C(=O)N[C@@H](CO)C(=O)N[C@@H](CO)C(=O)NCC(=O)N[C@@H](C)C(=O)N1CCC[C@H]1C(=O)N1CCC[C@H]1C(=O)N1CCC[C@H]1C(=O)N[C@@H](CO)C(=O)N[C@@H](CCCCN)C(N)=O)C(C)C [Compound 181] | 102% |  |  |  | 1 to 10 nM | 1 to 10 nM | 102% | 10 to 100 nM | 10 to 100 nM | 103% | 103% | > 1000 nM |  |  |
| CC[C@H](C)[C@H](NC(=O)[C@H](CO)NC(=O)[C@H](Cc1ccc(O)cc1)NC(=O)[C@H](CC(=O)O)NC(=O)[C@H](CO)NC(=O)[C@@H](NC(=O)[C@H](Cc1ccccc1)NC(=O)[C@@H](NC(=O)CNC(=O)[C@H](CCC(=O)O)NC(=O)CCNC(=O)CCCN1C(=O)CSC1=O)[C@@H](C)O)[C@@H](C)O)C(=O)N[C@@H](Cc1ccc(O)cc1)C(=O)N[C@@H](CC(C)C)C(=O)N[C@@H](CC(=O)O)C(=O)N[C@@H](CCCCN)C(=O)N[C@@H](CCC(N)=O)C(=O)N[C@@H](C)C(=O)N[C@@H](C)C(=O)NC(C)(C)C(=O)N[C@@H](CCC(=O)O)C(=O)N[C@@H](Cc1ccccc1)C(=O)N[C@H](C(=O)N[C@@H](CC(N)=O)C(=O)N[C@@H](Cc1c[nH]c2ccccc12)C(=O)N[C@@H](CC(C)C)C(=O)N[C@@H](CC(C)C)C(=O)N[C@@H](C)C(=O)NCC(=O)NCC(=O)N1CCC[C@H]1C(=O)N[C@@H](CO)C(=O)N[C@@H](CO)C(=O)NCC(=O)N[C@@H](C)C(=O)N1CCC[C@H]1C(=O)N1CCC[C@H]1C(=O)N1CCC[C@H]1C(=O)N[C@@H](CO)C(=O)N[C@@H](CCCCN)C(N)=O)C(C)C [Compound 172] | 63 to 71% |  |  |  | 10 to 100 nM | 10 to 100 nM | 63 to 71% | 1 to 10 nM | 1 to 10 nM | 98 to 101% | 98 to 101% | > 1000 nM |  |  |
| CCCCCCCCCCCCCCCC(=O)N[C@@H](CCC(=O)NCCCC[C@H](NC(=O)[C@H](CO)NC(=O)[C@@H]1CCCN1C(=O)[C@@H]1CCCN1C(=O)[C@@H]1CCCN1C(=O)[C@H](C)NC(=O)CNC(=O)[C@H](CO)NC(=O)[C@H](CO)NC(=O)[C@@H]1CCCN1C(=O)CNC(=O)CNC(=O)[C@H](C)NC(=O)[C@H](CC(C)C)NC(=O)[C@H](CC(C)C)NC(=O)[C@H](Cc1c[nH]c2ccccc12)NC(=O)[C@H](CC(N)=O)NC(=O)[C@@H](NC(=O)[C@H](Cc1ccccc1)NC(=O)[C@H](CCC(=O)O)NC(=O)C(C)(C)NC(=O)[C@H](C)NC(=O)[C@H](C)NC(=O)[C@H](CCC(N)=O)NC(=O)[C@H](CCCCN)NC(=O)[C@H](CC(=O)O)NC(=O)[C@H](CC(C)C)NC(=O)[C@H](Cc1ccc(O)cc1)NC(=O)[C@@H](NC(=O)[C@H](CO)NC(=O)[C@H](Cc1ccc(O)cc1)NC(=O)[C@H](CC(=O)O)NC(=O)[C@H](CO)NC(=O)[C@@H](NC(=O)[C@H](Cc1ccccc1)NC(=O)[C@@H](NC(=O)CNC(=O)[C@H](CCC(=O)O)NC(=O)CSCC(=O)NCCN1CCCOC1=O)[C@@H](C)O)[C@@H](C)O)[C@@H](C)CC)C(C)C)C(N)=O)C(=O)O [Compound 6] | 75% | 1 to 10 nM | 0.1 to 1 nM | > 1000 nM |  |  | 75% |  |  | 95% | 95% |  | 1 to 10 nM | 0.1 to 1 nM |
| CCCCCCCCCCCCCCCC(=O)N[C@@H](CCC(=O)NCCCC[C@H](NC(=O)[C@H](CO)NC(=O)[C@@H]1CCCN1C(=O)[C@@H]1CCCN1C(=O)[C@@H]1CCCN1C(=O)[C@H](C)NC(=O)CNC(=O)[C@H](CO)NC(=O)[C@H](CO)NC(=O)[C@@H]1CCCN1C(=O)CNC(=O)CNC(=O)[C@H](C)NC(=O)[C@H](CC(C)C)NC(=O)[C@H](CC(C)C)NC(=O)[C@H](Cc1c[nH]c2ccccc12)NC(=O)[C@H](CC(N)=O)NC(=O)[C@@H](NC(=O)[C@H](Cc1ccccc1)NC(=O)[C@H](CCC(=O)O)NC(=O)C(C)(C)NC(=O)[C@H](C)NC(=O)[C@H](C)NC(=O)[C@H](CCC(N)=O)NC(=O)[C@H](CCCCN)NC(=O)[C@H](CC(=O)O)NC(=O)[C@H](CC(C)C)NC(=O)[C@H](Cc1ccc(O)cc1)NC(=O)[C@@H](NC(=O)[C@H](CO)NC(=O)[C@H](Cc1ccc(O)cc1)NC(=O)[C@H](CC(=O)O)NC(=O)[C@H](CO)NC(=O)[C@@H](NC(=O)[C@H](Cc1ccccc1)NC(=O)[C@@H](NC(=O)CNC(=O)[C@H](CCC(=O)O)NC(=O)CSCC(=O)NCCN1CCSCC1=O)[C@@H](C)O)[C@@H](C)O)[C@@H](C)CC)C(C)C)C(N)=O)C(=O)O [Compound 36] | 51 to 75% | 0.1 to 10 nM | < 1 nM | > 1000 nM |  |  | 51 to 75% |  |  | 108% | 108% |  | 0.1 to 10 nM | < 1 nM |
